Among the data in patent US20240425500A1 (priority 2021, published 2024) are inhibition values, retold here.

The subject of the assay is Pythium ultimum. Nature of the assay: Pythium ultimum / liquid culture (seedling damping off). The assay is classed as cell-based. The settings on record: Globisporangium ultimum, liquid culture in PDB, 24 °C, 2-3 days after application, read-out: control of Pythium ultimum (inhibition of growth, photometric) compared to untreated control. Here is the method: Pythium ultimum/Liquid Culture (Seedling Damping Off):
Mycelia fragments and oospores of a newly grown liquid culture of the fungus are directly mixed into nutrient broth (PDB potato dextrose broth). After placing a (DMSO) solution of test compound into a microtiter plate (96-well format), the nutrient broth containing the fungal mycelia/spore mixture is added. The test plates are incubated at 24° C. and the inhibition of growth is determined photometrically 2-3 days after application.
In general, inhibition refers to the relative decrease from the control value, in per cent. On to `COC(=O)Nc1ccc(-c2cnc3ccc(C(=O)N(CCO)c4ccccc4)cn23)cn1` [Compound 112, methyl N-[5-[6-[2-hydroxyethyl(phenyl)carbamoyl]imidazo [1,2-a]pyridin-3-yl]-2-pyridyl]carbamate], for which the inhibition at 20 ppm is at least 80%.

In the case of `COC(=O)Nc1ccc(-c2cnc3cc(C#N)c(C(=O)N(C)c4ccc(Cl)cc4)cn23)cc1` [Compound 41, methyl N-[4-[6-[(4-chlorophenyl)-methyl-carbamoyl]-7-cyano-imidazo[1,2-a]pyridin-3-yl]phenyl]carbamate], the inhibition at 20 ppm was at least 80%.

For `COC(=O)Nc1ccc(-c2cnc3ccc(C(=O)N(C)c4ccc(F)nc4)cn23)cn1` [Compound 60, methyl N-[5-[6-[(6-fluoro-3-pyridyl)-methyl-carbamoyl]imidazo[1,2-a]pyridin-3-yl]-2-pyridyl]carbamate], the inhibition at 20 ppm was at least 80%.

Turning to `COC(=O)Nc1ccc(-c2cnc3cc(F)c(C(=O)N(C)c4ccc(Cl)cc4)cn23)cc1` [Compound 42, methyl N-[4-[6-[(4-chlorophenyl)-methyl-carbamoyl]-7-fluoro-imidazo[1,2-a]pyridin-3-yl]phenyl]carbamate], the inhibition at 20 ppm was at least 80%.

On to `COC(=O)Nc1ccc(-c2cnc3ccc(C(=O)N(C)c4ccc(C)cc4)cn23)cc1` [Compound 16, methyl N-[4-[6-[methyl (p-tolyl)carbamoyl]imidazo [1,2-a]pyridin-3-yl]phenyl]carbamate], for which the inhibition at 20 ppm is at least 80%.

Regarding `COC(=O)Nc1ccc(-c2cnc3ccc(C(=O)N(C)c4cc(C)cc(OC)c4)cn23)cn1` [Compound 59, methyl N-[5-[6-[(3-methoxy-5-methyl-phenyl)-methyl-carbamoyl]imidazo[1,2-a]pyridin-3-yl]-2-pyridyl]carbamate], the inhibition at 20 ppm was at least 80%.

For `CCN(C(=O)c1ccc2ncc(-c3ccc(NC(=O)OC)nc3)n2c1)c1ccc(C)c(F)c1` [Compound 127, methyl N-[5-[6-[ethyl-(3-fluoro-4-methyl-phenyl)carbamoyl]imidazo [1,2-a]pyridin-3-yl]-2-pyridyl]carbamate], the inhibition at 20 ppm was at least 80%.

For the molecule `COC(=O)Nc1ccc(-c2cnc3cc(OC)c(C(=O)N(C)c4ccc(Cl)cc4)cn23)cc1` [Compound 39, methyl N-[4-[6-[(4-chlorophenyl)-methyl-carbamoyl]-7-methoxy-imidazo[1,2-a]pyridin-3-yl]phenyl]carbamate], the inhibition at 20 ppm is at least 80%.

`COC(=O)Nc1ccc(-c2cnc3ccc(C(=O)N(CC4CC4)c4ccc(Cl)cc4)cn23)cc1` [Compound 28, methyl N-[4-[6-[(4-chlorophenyl)-(cyclopropylmethyl)carbamoyl]imidazo[1,2-a]pyridin-3-yl]phenyl]carbamate]: the inhibition at 20 ppm was at least 80%.

In the case of `COC(=O)Nc1ccc(-c2cnc3ccc(C(=O)N(C)c4ccc(OC(F)F)cc4)cn23)cn1` [Compound 66, methyl N-[5-[6-[[4-(difluoromethoxy)phenyl]-methyl-carbamoyl]imidazo[1,2-a]pyridin-3-yl]-2-pyridyl]carbamate], the inhibition at 20 ppm was at least 80%.

For `COC(=O)Nc1ccc(-c2cnc3ccc(C(=O)N(C)c4ccc(Cl)c(C(F)(F)F)c4)cn23)cn1` [Compound 121, methyl N-[5-[6-[[4-chloro-3-(trifluoromethyl)phenyl]-methyl-carbamoyl]imidazo[1,2-a]pyridin-3-yl]-2-pyridyl]carbamate], the inhibition at 20 ppm is at least 80%.

Turning to `C#CCN(C(=O)c1ccc2ncc(-c3ccc(NC(=O)OC)cc3)n2c1)c1ccc(Cl)cc1` [Compound 33, methyl N-[4-[6-[(4-chlorophenyl)-prop-2-ynyl-carbamoyl]imidazo[1,2-a]pyridin-3-yl]phenyl]carbamate], the inhibition at 20 ppm was at least 80%.

For `COC(=O)Nc1ccc(-c2cnc3ccc(C(=O)N(C)c4ccncc4)cn23)cc1` [Compound 24, methyl N-[4-[6-[methyl(4-pyridyl)carbamoyl]imidazo [1,2-a]pyridin-3-yl]phenyl]carbamate], the inhibition at 20 ppm was at least 80%.
